Experimental findings from ChEMBL document CHEMBL3632623, “Discovery of Imidazo[1,2-α][1,8]naphthyridine Derivatives as Potential HCV Entry Inhibitor” (ACS Med Chem Lett, 2015) are described below.

Data set [1] in a line: Cytotoxicity against human Huh7.5.1 cells. It counts as cell-based, Huh-7.
The test system of data set [2] is Hepatitis C virus. Kind of data set: Antiviral activity against HCV genotype 2a JFH-1 infected in human Huh7.5.1 cells after 2 hrs by luciferase assay. It counts as functional, organism-based, Hepacivirus hominis. The note with it: JFH-1, Huh-7, 2 h.
Data set [3] concerns Hepatitis C virus. Kind of data set: Antiviral activity against HCV genotype 1b Con-1 infected in human HuH7 cells after 72 hrs by luciferase based replicon assay. It counts as functional, organism-based. The note with it: Hepacivirus hominis; isolate Con1; Huh-7.
In data set [4] the test system is Hepatitis C virus. Kind of data set: Antiviral activity against HCV genotype 2a JFH-1 in human Huh7.5.1 cells assessed as inhibition of post-attachment infection phase at 0.2 uM after 3 days by luciferase assay. The note with it: JFH-1, Huh-7, 72 h. It counts as functional, Hepacivirus hominis.
Data set [5] can be described thus: Cmax in Wistar rat at 100 mg/kg, po. It is filed as ADME, organism-based. The note with it: in vivo. Further details: dose 100 mg/kg, route oral.
Data set [6] has as its system Human immunodeficiency virus. The data set is described as follows: Antiviral activity against HIV infected in human Ghost cells. It is filed as functional, organism-based. The note with it: Human immunodeficiency virus 1, Ghost.
The nature of data set [7]: Cytotoxicity against human HepAD38 cells. It is filed as cell-based.
Data set [8] in a line: Cytotoxicity against human GHOST cells. It is filed as cell-based.
In data set [9] the test system is Huh-7. The data set is described as follows: Activation of ISRE reporter gene in human HuH7 cells at 2 to 50 uM after 24 hrs by luciferase assay. It is filed as functional, cell-based. On the technique in general: In a reporter assay the amount or activity of a reporter protein is the signal.
Data set [10] has as its system Vero. Kind of data set: Activation of ISRE reporter gene in African green monkey Vero cells at 4 to 100 uM after 24 hrs by luciferase assay. It is filed as functional, cell-based. As to conditions: Chlorocebus sabaeus.
A short description of data set [11]: Tmax in Wistar rat at 100 mg/kg, po. It counts as ADME, organism-based. As to conditions: in vivo.
Data set [12] concerns Huh-7. Kind of data set: Activation of ISRE reporter gene in human Huh7.5.1 cells at 2 to 50 uM after 24 hrs by luciferase assay. It is filed as functional, cell-based.
Data set [13] in a line: Cytotoxicity against human RD cells. It is filed as cell-based.
Data set [14] can be described thus: Elimination half life in Wistar rat at 100 mg/kg, po. It is filed as ADME, organism-based. As to conditions: in vivo, read-out: beta t1/2 (converted).
In data set [15] the test system is Hepatitis C virus. The data set is described as follows: Ratio of RO8191 EC50 to compound EC50 for HCV genotype 2a JFH-1 infected in human Huh7.5.1 cells after 2 hrs by luciferase assay. It counts as functional, Hepacivirus hominis, Huh-7.
Data set [16] relates to Hepatitis B virus. Kind of data set: Antiviral activity against HBV infected in human HepAD38 cells. It is filed as functional, organism-based.
Data set [17] relates to Enterovirus A71. Kind of data set: Antiviral activity against EV71 infected in human RD cells. It is filed as functional, organism-based. As to conditions: Enterovirus A.
The nature of data set [18]: Cytotoxicity against human HuH7 cells. It counts as cell-based, Huh-7.
Data set [19] can be described thus: AUC ( 0 to infinity) in Wistar rat at 100 mg/kg, po. As to conditions: in vivo. It is filed as ADME, organism-based. Further details: dose 100 mg/kg, route oral, time infinity.
Data set [20] is described as follows: AUC ( 0 to 24 hrs) in Wistar rat at 100 mg/kg, po. As to conditions: in vivo. Further details: time < 24 hr, dose 100 mg/kg, route oral. It is filed as ADME, organism-based.
Data set [21] concerns Middle East respiratory syndrome-related coronavirus. Kind of data set: Antiviral activity against MERS infected in human HuH7 cells. It counts as functional, cell-based. The note with it: Huh-7.
Data set [22] concerns Hepatitis C virus. The data set is described as follows: Antiviral activity against HCV genotype 2a JFH-1 in human Huh7.5.1 cells assessed as reduction of viral entry up to 3 hrs by luciferase assay. It counts as functional, organism-based. The note with it: Hepacivirus hominis, Huh-7.
In data set [23] the test system is HepG2. The data set is described as follows: Activation of ISRE reporter gene in human HepG2 cells at 2 to 50 uM after 24 hrs by luciferase assay. It is filed as functional, cell-based.
The test system of data set [24] is Hepatitis C virus. The data set is described as follows: Antiviral activity against HCV genotype 2a JFH-1 in human Huh7.5.1 cells assessed as inhibition of viral attachment to heparan sulfate proteoglycans at 0.2 uM at 4 degC by luciferase assay. It counts as functional, organism-based. The note with it: Hepacivirus hominis, Huh-7.
Data set [25] has as its system Hepatitis C virus. Kind of data set: Antiviral activity against HCV. It is filed as functional, organism-based, Hepacivirus hominis.
Data set [26] relates to Hepatitis C virus. The data set is described as follows: Antiviral activity against HCV genotype 2a JFH-1 in human Huh7.5.1 cells assessed as inhibition of viral attachment to heparan sulfate proteoglycans at 10 nM at 4 degC by luciferase assay. It is filed as functional, organism-based. As to conditions: Hepacivirus hominis, Huh-7.

As a reminder, the CC50 is the concentration giving 50% cytotoxicity. What is called EC50 is the midpoint of the concentration-response curve. As usually defined, the inhibition is the share of the control response that was lost under treatment. What is called Cmax is the highest concentration seen after dosing. Usually Tmax stands for the time at which the peak concentration occurs. The AUC(0-inf) is total exposure, with the tail of the curve extrapolated. By AUC(0-t) is commonly meant exposure summed from dosing to a finite time, without extrapolation to infinity.

The structures appear in SMILES notation. Active and inactive are the calls of the source. The rule behind the calls is not given here.

In turn, `COC(=O)CN1CCN(C(=O)c2cn3c(ccc4c(C(F)(F)F)cc(C(F)(F)F)nc43)n2)CC1` displayed a CC50 in [1] of over 25 µM. The response in [2] was half-maximal at 13.2 µM (EC50).
On to `CN1CCN(C(=O)c2cn3c(ccc4c(C(F)(F)F)cc(C(F)(F)F)nc43)n2)CC1`, for which the CC50 in [1] is over 25 µM. Besides, the EC50 in data set [2] amounted to 0.159 µM. Further, the outcome in [3] was inactive.
On to `COC(=O)C1CCCN(C(=O)c2cn3c(ccc4c(C(F)(F)F)cc(C(F)(F)F)nc43)n2)C1` (centres undefined), for which the CC50 in [1] was over 25 µM. For the same compound, the EC50 in data set [2] was found to be 2.54 µM.
On the same counts, the results for `O=C(c1cn2c(ccc3c(C(F)(F)F)cc(C(F)(F)F)nc32)n1)N1CCOCC1` are over 25 µM and over 20 µM.
`NCCNC(=O)c1cn2c(ccc3c(C(F)(F)F)cc(C(F)(F)F)nc32)n1`: the inhibition at 0.2 µM in data set [4] was 90%. The compound also yielded a Cmax in [5] of 2050 nM. In addition, the half-maximal effective concentration (EC50) was over 20 µM in data set [6]; 0.017 µM in data set [2]; over 20 µM in data set [16]; over 20 µM in data set [17]; over 20 µM in [21]. For the same compound, the CC50 in data set [7] was over 20 µM; in [1], over 25 µM; in [8] it was over 20 µM; in data set [13], over 20 µM; in data set [18] it was over 20 µM. The outcome in [9], in [10], in data set [12], in [3] and in data set [23] was inactive. Moreover, the Tmax in data set [11] was determined as 2.17 h. Also, the half-life in data set [14] is 2.93 h. Besides, the “Ratio EC50” value in [15] is 5. In addition, the AUC(0-inf) in data set [19] was 19.1 µM·h. The compound further had an AUC(0-t) at 24 h in data set [20] of 19 µM·h. Moreover, the inhibition result in [22] and in [24] was “Active” throughout.
The compound `Nc1cccc(NC(=O)c2cn3c(ccc4c(C(F)(F)F)cc(C(F)(F)F)nc43)n2)c1` returned a 50% cytotoxic concentration (CC50) in data set [1] of over 25 µM. Also, in data set [2], the EC50 is over 20 µM.
On the same counts, the results for `NCCCNC(=O)c1cn2c(ccc3c(C(F)(F)F)cc(C(F)(F)F)nc32)n1` are over 25 µM and 1.3 µM.
Take `NC1CCN(C(=O)c2cn3c(ccc4c(C(F)(F)F)cc(C(F)(F)F)nc43)n2)C1` (centres undefined): the CC50 in [1] is over 25 µM. In addition, the concentration for a half-maximal effect (EC50) in [2] is 0.021 µM. Besides, in data set [15], the “Ratio EC50” value was found to be 5. Moreover, in [3], the result was inactive.
The compound `COC(=O)C1CCN(C(=O)c2cn3c(ccc4c(C(F)(F)F)cc(C(F)(F)F)nc43)n2)CC1` had a CC50 in data set [1] of over 25 µM. In data set [2], this compound yielded an EC50 of 12.7 µM.
On to `CNCCN(C)C(=O)c1cn2c(ccc3c(C(F)(F)F)cc(C(F)(F)F)nc32)n1`, for which the cytotoxic concentration (CC50) in data set [1] was over 25 µM. In addition, a half-maximal effect in [2] (EC50) was put at 0.02 µM. Also, in [15], the “Ratio EC50” value turned out to be 5. Further, in data set [3], the outcome was inactive.
`CN(C)CCNC(=O)c1cn2c(ccc3c(C(F)(F)F)cc(C(F)(F)F)nc32)n1` registered a CC50 in data set [1] of over 25 µM. In [2], the EC50 came out at 0.069 µM. Also, the outcome in data set [3] was inactive.
Compound `O=C(c1cn2c(ccc3c(C(F)(F)F)cc(C(F)(F)F)nc32)n1)N1CCNCC1` came in with a CC50 in data set [1] of over 25 µM. This compound returned an EC50 in [2] of 0.046 µM. In addition, the “Ratio EC50” value in [15] is given as 5. In data set [3], the outcome was inactive.
On the same counts, the results for `CC1CN(C(=O)c2cn3c(ccc4c(C(F)(F)F)cc(C(F)(F)F)nc43)n2)CCN1` (centres undefined) are over 25 µM, 0.067 µM, 5 and “inactive”.
As to `FC(F)(F)c1cc(C(F)(F)F)c2ccc3nc(-c4nnco4)cn3c2n1`, in [25], the EC50 worked out at 0.203 µM. Moreover, the outcome in data set [9], in data set [10], in [12], in [3] and in [23] was Active.
Regarding `NCCCCNC(=O)c1cn2c(ccc3c(C(F)(F)F)cc(C(F)(F)F)nc32)n1`, in data set [1], the CC50 was over 25 µM. The compound further yielded an EC50 in data set [2] of 1.13 µM.
On the same counts, the results for `O=C(c1cn2c(ccc3c(C(F)(F)F)cc(C(F)(F)F)nc32)n1)N1CCC(O)CC1` are over 25 µM and over 20 µM.
On the same counts, the results for `O=C(c1cn2c(ccc3c(C(F)(F)F)cc(C(F)(F)F)nc32)n1)N1CCC(CO)CC1` are over 25 µM and over 20 µM.
On the same counts, the results for `Nc1ccc(NC(=O)c2cn3c(ccc4c(C(F)(F)F)cc(C(F)(F)F)nc43)n2)cc1` are over 25 µM and over 20 µM.
With `O=C1CN(C(=O)c2cn3c(ccc4c(C(F)(F)F)cc(C(F)(F)F)nc43)n2)CCN1`, in data set [1], the CC50 was over 25 µM. Besides, in data set [2], the EC50 is 12.5 µM.
In data set [1], `NC1CCCCC1NC(=O)c1cn2c(ccc3c(C(F)(F)F)cc(C(F)(F)F)nc32)n1` (centres undefined) yielded a CC50 of over 25 µM. The compound further showed a concentration for a half-maximal effect (EC50) in [2] of 0.048 µM. The “Ratio EC50” value in [15] came to 5. For the same compound, the outcome in data set [3] was inactive.
The compound `NC1CCN(C(=O)c2cn3c(ccc4c(C(F)(F)F)cc(C(F)(F)F)nc43)n2)CC1` registered a CC50 in data set [1] of over 25 µM. Further, in data set [2], the EC50 is 0.102 µM. Further, in data set [3], the result was inactive.
For the compound `CCOC(=O)[C@@H](CCCCN)NC(=O)c1cn2c(ccc3c(C(F)(F)F)cc(C(F)(F)F)nc32)n1`, the CC50 in [1] is over 25 µM. In data set [2], the EC50 is 0.14 µM.
On the same counts, the results for `O=C(c1cn2c(ccc3c(C(F)(F)F)cc(C(F)(F)F)nc32)n1)N1CCCC1CO` (centres undefined) are over 25 µM and 16.6 µM.
In the case of `CO/C1=C\C(C)=C\[C@@H](C)[C@@H](O)[C@@H](C)C/C(C)=C/C=C/[C@H](OC)[C@@H]([C@@H](C)[C@@H](O)[C@H](C)[C@@]2(O)C[C@@H](O)[C@H](C)[C@@H](C(C)C)O2)OC1=O`, in [26], the inhibition result was “inactive”. For the same compound, the inhibition result in data set [22] is “Active”.
For the compound `Nc1ccccc1NC(=O)c1cn2c(ccc3c(C(F)(F)F)cc(C(F)(F)F)nc32)n1`, the CC50 in [1] is over 25 µM. Moreover, the EC50 in data set [2] is over 20 µM.
